In patent US7491794B2, “Macrocyclic compounds as inhibitors of viral replication” (Intermune, Inc., priority 2003, dated 2009):
Where a name gives a salt, the structure may show the parent alone. Read-outs that look alike come from different tables or passages of the source.

Biological target: T1, NS3-NS4A protease (Hepatitis C virus genotype 1a, UniProt P27958)
T1 construct: Recombinant E. coli or Baculovirus full-length NS3 was diluted to 3.33 μM with assay buffer; made in house; host or cells: E. coli or baculovirus (BV) system
Test: NS3-NS4A protease assay (NS3 inhibition assay, RETS1 substrate), Section B
Assay type: biochemical
Procedure: NS3 complex formation with NS4A-2
Recombinant E. coli or Baculovirus full-length NS3 was diluted to 3.33 μM with assay buffer and the material transferred to an eppendorf tube and place in water bath in 4° C. refrigerator. The appropriate amount of NS4A-2 to 8.3 mM in assay buffer was added to equal the volume of NS3 in step 2.1.1 (conversion factor −3.8 mg/272 μL assay buffer). The material was transferred to an eppendorf tube and placed in a water bath in a 4° C. refrigerator.
After equilibration to 4° C., equal volumes of NS3 and NS4A-2 solutions were combined in an eppendorf tube, mixed gently with a manual pipettor, and the mixture incubated for 15 minutes in the 4° C. water bath. Final concentrations in the mixture were 1.67 μM NS3, 4.15 mM NS4A-2 (2485-fold molar excess NS4A-2).
After 15 minutes at 4° C., the NS3/NS4A-2 eppendorf tube was removed and placed in a room temperature water bath for 10 minutes. NS3/NS4A-2 was aliquoted at appropriate volumes and store at −80° C. (E. coli NS3 run at 2 nM in assay, aliquot at 25 μL. BV NS3 run at 3 nM in assay, aliquot at 30 μL.
Step 2.2.5. Sample compounds were dissolved to 10 mM in DMSO then diluted to 2.5 mM (1:4) in DMSO.
Step 2.2.6. The E. coli NS3/NS4A-2 was diluted to 4 nM NS3 (1:417.5 of 1.67 μM stock−18 μL 1.67 μM stock+7497 μL assay buffer).
The BV NS3/NS4A-2 was diluted to 6 nM NS3 (1:278.3 of 1.67 μM stock−24 μL 1.67 μM stock+6655 μL assay buffer).
Step 2.2.7. Using the manual multichannel pipettor, and being careful not to introduce bubbles into the plate, 50 μL assay buffer was added to wells A01-H01 of a black Costar 96-well polypropylene storage plate.
Step 2.2.8. Using the manual multichannel pipettor, and being careful not to introduce bubbles into the plate, 50 μL of diluted NS3/NS4A-2 from step 2.2.6 was added to wells A02-H12 of plate in step 2.2.7.
Step 2.2.9. Using the manual multichannel pipettor, and being careful not to introduce bubbles into the plate, 25 μL of the wells in drug dilution plate in step 2.2.5 were transferred to corresponding wells in assay plate in step 2.2.8. The tips on multichannel pipettor were changed for each row of compounds transferred.
Step 2.2.10. Using the manual multichannel pipettor, and being careful not to introduce bubbles into the plate, the wells from the assay plate in step 2.2.9 were mixed by aspirating and dispensing 35 μL of the 75 μL in each well five times. The tips on multichannel pipettor were changed for each row of wells mixed.
Step 2.2.11. The plate was covered with a polystyrene plate lid, and the plate from step 2.2.10 containing NS3 protease and sample compounds was pre-incubated 10 minutes at room temperature.
While the plate from step 2.2.11 was pre-incubating, the RETS1 substrate was diluted in a 15 mL polypropylene centrifuge tube. The RETS1 substrate was diluted to 8 μM (1:80.75 of 646 μM stock−65 μL 646 μM stock+5184 μL assay buffer).
After the plate in step 2.2.11 was done pre-incubating, and using the manual multichannel, 25 μL of substrate was added to all wells on the plate. The contents of the wells were quickly mixed, as in step 2.2.10, but mixing 65 μL of the 100 μL in the wells.
The plate was read in kinetic mode on the Molecular Devices SpectraMax Gemini XS plate reader. Reader settings: Read time: 30 minutes, Interval: 36 seconds, Reads: 51, Excitation λ: 335 nm, Emission λ: 495 nm, cutoff: 475 nm, Automix: off, Calibrate: once, PMT: high, Reads/well: 6, Vmax pts: 21 or 28/51 depending on length of linearity of reaction.
IC50s were determined using a four parameter curve fit equation, and converted to Ki's using the following Km's:
where Ki=IC50/(1+[S]/Km))

T1 sequence (P27958 1027-1657): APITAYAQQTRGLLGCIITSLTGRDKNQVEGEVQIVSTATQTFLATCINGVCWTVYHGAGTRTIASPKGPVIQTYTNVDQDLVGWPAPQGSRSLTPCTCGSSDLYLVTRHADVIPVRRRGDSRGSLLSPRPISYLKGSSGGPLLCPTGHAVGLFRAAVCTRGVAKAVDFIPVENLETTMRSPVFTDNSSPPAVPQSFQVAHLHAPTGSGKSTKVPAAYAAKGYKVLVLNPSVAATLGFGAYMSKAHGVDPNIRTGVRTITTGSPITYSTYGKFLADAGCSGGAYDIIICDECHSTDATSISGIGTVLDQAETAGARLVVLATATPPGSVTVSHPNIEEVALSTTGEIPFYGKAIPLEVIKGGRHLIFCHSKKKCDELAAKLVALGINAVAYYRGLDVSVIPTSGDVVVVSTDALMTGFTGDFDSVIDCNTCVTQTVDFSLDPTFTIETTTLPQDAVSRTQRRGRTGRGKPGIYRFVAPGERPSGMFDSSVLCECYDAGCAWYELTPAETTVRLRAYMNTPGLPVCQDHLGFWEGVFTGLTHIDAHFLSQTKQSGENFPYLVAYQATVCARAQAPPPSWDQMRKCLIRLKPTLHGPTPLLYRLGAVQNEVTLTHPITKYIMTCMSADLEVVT

Row | Structure (SMILES) | IC50 (read-out: NS3-NS4A IC50) [µM] | IC50 [µM]
1 | CN(C)CCOc1ccc2c(c1)CN(C(=O)O[C@@H]1C[C@H]3C(=O)N[C@]4(C(=O)O)C[C@H]4/C=C\CCCCC[C@H](NC(=O)OC(C)(C)C)C(=O)N3C1)C2 [AR00371947, (1S,4R,6S,14S,18R)-14-tert-Butoxycarbonylamino-18-[5-(2-dimethylamino-ethoxy)-1,3-dihydro-isoindole-2-carbonyloxy]-2,15-dioxo-3,16-diaza-tricyclo[14.3.0.0^4,6]nonadec-7-ene-4-carboxylic acid] | < 1 | 
2 | COc1cc2c(cc1OC)CN(C(=O)O[C@@H]1C[C@H]3C(=O)N[C@]4(C(=O)O)C[C@H]4/C=C\CCCCC[C@H](NC(=O)OC(C)(C)C)C(=O)N3C1)CC2 [AR00226824, (1S,4R,6S,14S,18R)-14-tert-Butoxycarbonylamino-18-(6,7-dimethoxy-3,4-dihydro-1H-isoquinoline-2-carbonyloxy)-2,15-dioxo-3,16-diaza-tricyclo[14.3.0.0^4,6]nonadec-7-ene-4-carboxylic acid] | < 10 | 
3 | CC(C)[C@@H](NC(=O)OC(C)(C)C)C(=O)N[C@H]1CCCCC/C=C\[C@@H]2C[C@@]2(C(=O)O)NC(=O)[C@@H]2C[C@@H](OC(=O)N3CCc4ccccc4C3)CN2C1=O [AR00298989, (1S,4R,6S,14S,18R)-14-(2-tert-Butoxycarbonylamino-3-methyl-butyrylamino)-18-(3,4-dihydro-1H-isoquinoline-2-carbonyloxy)-2,15-dioxo-3,16-diaza-tricyclo[14.3.0.0^4,6]nonadec-7-ene-4-carboxylic acid] |  | < 10
4 | CC(C)C(=O)N[C@H]1CCCCC/C=C\[C@@H]2C[C@@]2(C(=O)O)NC(=O)[C@@H]2C[C@@H](OC(=O)N3CCc4ccccc4C3)CN2C1=O [AR00248688, (1S,4R,6S,14S,18R)-18-(3,4-Dihydro-1H-isoquinoline-2-carbonyloxy)-14-isobutyrylamino-2,15-dioxo-3,16-diaza-tricyclo[14.3.0.0^4,6]nonadec-7-ene-4-carboxylic acid] | < 10 | 
5 | CC(=O)Nc1nc2c(s1)CN(C(=O)O[C@@H]1C[C@H]3C(=O)N[C@]4(C(=O)O)C[C@H]4/C=C\CCCCC[C@H](NC(=O)OC(C)(C)C)C(=O)N3C1)CC2 [AR00314685, (1S,4R,6S,14S,18R)-18-(2-Acetylamino-6,7-dihydro-4H-thiazolo[5,4-c]pyridine-5-carbonyloxy)-14-tert-butoxycarbonylamino-2,15-dioxo-3,16-diaza-tricyclo[14.3.0.0^4,6]nonadec-7-ene-4-carboxylic acid] | < 50 | 
6 | COc1ccccc1C1CCN(C(=O)O[C@@H]2C[C@H]3C(=O)N[C@]4(C(=O)O)C[C@H]4/C=C\CCCCC[C@H](NC(=O)OC(C)(C)C)C(=O)N3C2)CC1 [AR00320576, (1S,4R,6S,14S,18R)-14-tert-Butoxycarbonylamino-18-[4-(2-methoxy-phenyl)-piperidine-1-carbonyloxy]-2,15-dioxo-3,16-diaza-tricyclo[14.3.0.0^4,6]nonadec-7-ene-4-carboxylic acid] | < 10 | 
7 | COCC1c2cccc(F)c2CCN1C(=O)O[C@@H]1C[C@H]2C(=O)N[C@]3(C(=O)NS(=O)(=O)C4CC4)C[C@H]3/C=C\CCCCC[C@H](N)C(=O)N2C1 (stereo partly drawn) [AR00424775, (1S,4R,6S,14S,18R)-5-Fluoro-1-methoxymethyl-3,4-dihydro-1H-isoquinoline-2-carboxylic acid 14-amino-4-cyclopropanesulfonylaminocarbonyl-2,15-dioxo-3,16-diaza-tricyclo[14.3.0.0^4,6]nonadec-7-en-18-yl ester, HCl salt] | < 0.1 | 
8 | O=C(N[C@H]1CCCCC/C=C\[C@@H]2C[C@@]2(C(=O)O)NC(=O)[C@@H]2C[C@@H](OC(=O)N3CCc4ccccc4C3)CN2C1=O)OC1CCCC1 [AR00247310, (1S,4R,6S,14S,18R)-14-Cyclopentyloxycarbonylamino-18-(3,4-dihydro-1H-isoquinoline-2-carbonyloxy)-2,15-dioxo-3,16-diaza-tricyclo[14.3.0.0^4,6]nonadec-7-ene-4-carboxylic acid] | < 1 | 
9 | CC(C)(C)OC(=O)N[C@H]1CCCCCCC[C@@H]2C[C@@]2(C(=O)O)NC(=O)[C@@H]2C[C@@H](OC(=O)N3CCc4ccccc4C3)CN2C1=O [AR00312023] | < 1 | 
